The first assay is filed under the species Homo sapiens. The assay can be described thus: Tested for its rate of glucuronidation in 0.5-2.5 mg/mL of human microsomal protein; Not detected. The class given is functional.
Conditions: not given
In the case of `CC(c1cc2cccnc2o1)N(O)C(N)=O` (single isomer, unassigned; (-)) [listing 1 of 2 here], the Glucuronidation rate entry was “Not detected”.

A further assay is filed under the species Homo sapiens. Description: Concentration required for the inhibition of LTB4 production in human whole blood. The class given is functional, organism-based.
Conditions: not given
In turn, `CC(c1cc2ccncc2s1)N(O)C(N)=O` (single isomer, unassigned; (+)) [listing 1 of 2 here] gave an IC50 of 1500 nM. On the same count and under the same terms, the result for `CC(c1cc2ncccc2s1)N(O)C(N)=O` (single isomer, unassigned; (+)) [listing 1 of 2 here] reads 3120 nM; that for `CC(c1cc2cccnc2o1)N(O)C(N)=O` (single isomer, unassigned; (-)) [listing 2 of 2 here], 11300 nM; that for `CC(c1cc2cccnc2s1)N(O)C(N)=O` (single isomer, unassigned; (-)) [listing 1 of 2 here], 3700 nM. The same measure, in the same setting: as for `CC(c1cc2ccccc2s1)N(O)C(N)=O` (single isomer, unassigned; (-)) [ZILEUTON], the figure is 1880 nM; as for `CC(c1cc2ccccc2s1)N(O)C(N)=O` (stereo in doubt; (+)-1b) [ZILEUTON], 640 nM. On the same count and under the same terms, the result for `CC(c1cc2cccnc2s1)N(O)C(N)=O` (stereo in doubt; (+)-2b) [listing 1 of 2 here] reads 950 nM. Regarding `CC(c1cc2cccnc2o1)N(O)C(N)=O` (stereo in doubt; (+)-5b) [listing 1 of 2 here], the IC50 came out at 2780 nM. Same read-out and setting: as for `CC(c1cc2ncccc2s1)N(O)C(N)=O` (stereo in doubt; (-)-4a) [listing 1 of 2 here], the figure is 6620 nM.

The assay is the same for the next values; noted with them: Homo sapiens, Blood.
On to `CC(c1cc2ccncc2s1)N(O)C(N)=O` (stereo in doubt; (-)-3a) [listing 1 of 2 here], for which it took 2000 nM to reach half-maximal inhibition (IC50).

The species entered for a further assay is Homo sapiens. The assay can be described thus: Tested for its rate of glucuronidation in 0.5-2.5 mg/mL of human microsomal protein; not detected. The class given is functional.
Conditions: not given
As for `CC(c1cc2cccnc2o1)N(O)C(N)=O` (stereo in doubt; (+)-5b) [listing 2 of 2 here], the Glucuronidation rate result is “Not detected”.

For a further assay, the species on record is Homo sapiens. Description: Tested for its rate of glucuronidation in 0.5-2.5 mg/mL of human microsomal protein. The assay is classed as functional.
Conditions: not given
Take `CC(c1cc2ccncc2s1)N(O)C(N)=O` (single isomer, unassigned; (+)) [listing 2 of 2 here]: the Glucuronidation rate (nM min-1 mg-1) amounted to 0.053. The same measure, in the same setting: the result for `CC(c1cc2ncccc2s1)N(O)C(N)=O` (single isomer, unassigned; (+)) [listing 2 of 2 here] reads 0.006; that for `CC(c1cc2ccccc2s1)N(O)C(N)=O` (single isomer, unassigned; (-)), 0.155; that for `CC(c1cc2cccnc2s1)N(O)C(N)=O` (single isomer, unassigned; (-)) [listing 2 of 2 here], 0.058. Still for that read-out and setting: as for `CC(c1cc2ccccc2s1)N(O)C(N)=O` (stereo in doubt; (+)-1b), the figure is 0.025. In the case of `CC(c1cc2cccnc2s1)N(O)C(N)=O` (stereo in doubt; (+)-2b) [listing 2 of 2 here], the Glucuronidation rate (nM min-1 mg-1) stood at 0.012.

As for `CC(c1cc2ccncc2s1)N(O)C(N)=O` (stereo in doubt; (-)-3a) [listing 2 of 2 here], the Glucuronidation rate (nM min-1 mg-1) amounted to 0.241.

The molecule `CC(c1cc2ncccc2s1)N(O)C(N)=O` (stereo in doubt; (-)-4a) [listing 2 of 2 here] displayed a Glucuronidation rate (nM min-1 mg-1) of 0.037.
